For one assay, the target named is T1, CDK6/CyclinD3 (Homo sapiens, UniProt Q00534).
T1 construct: purchased Carna 04-107
The assay can be described thus: Kinase activity assay (MSA, EZ Reader) against CDK6. The settings on record: CDK6/CyclinD3 5.00 nM, ATP 350 µM, FL-Peptide34, 10mM MgCl2. It is filed as biochemical.

Assay [1] has as its system human mantle cell lymphoma cells JEKO-1. Nature of the assay: Cell anti-proliferation assay (MTT), JEKO-1. It is filed as cell-based. The conditions noted are these: Homo sapiens, 120 h, JEKO-1 cells, incubated for 5 days. The protocol: (§1) Human breast cancer cells MCF-7, human ovarian cancer cells A2780, human mantle cell lymphoma cells JEKO-1. DMEM medium (Bio-Channel), DMSO (dimethyl sulfoxide), MTT (thiazolyl blue), 0.25% EDTA-Trypsin (trypsin digestive solution), 1×PBS (phosphate buffered saline, pH 7.2), 96-well plate (Corning), fetal bovine serum (FBS), 10,000 U/mL penicillin-G/streptomycin, high-speed refrigerated centrifuge (EPPENDORF 5810R), and microplate reader (Tecan Spark).
(§2) • A) Tumor cells were cultured in DMEM (high glucose, containing 10% FBS and 100 U/mL penicillin-G/streptomycin) at 37 °C, 5% CO2 and saturated humidity until 80-90% confluence. • B) The medium in the 10 cm culture dish was removed. • C) Cells were rinsed once with 10 mL of 1×PBS. • D) 4 mL of 0.25% EDTA-Trypsin was added, and the cells were digested in a 37 °C, 5% CO2 incubator for 5 minutes. The mixture was transferred to a 15 mL centrifuge tube, centrifuged at 200 g for 5 minutes, and the supernatant was discarded to obtain cell pellet. • E) The cells were resuspended in 4 mL of DMEM medium, counted, and adjusted to 50,000 cells/mL. • F) 100 µL of cell suspension was added to each well of a 96-well plate, and the plate was incubated overnight at 37 °C in a 5% CO2 incubator.
(§3) • A) Gradient dilution solutions of the test compounds were prepared: the test compound was prepared into a 1 mM stock solution. Then 1.5 µL of the stock solution was dissolved in 1.5 mL of DMSO-free medium, followed by 3-fold serial gradient dilution with medium containing 0.1% DMSO to give 9 concentrations.
(§4) • A) The cell culture plate was taken out, and 10 µL of 5 mg/mL MTT was added in a biological safety cabinet; • B) The plate was returned to the incubator and incubated for another 3 hours; • C) The cell culture plate was taken out and the medium was removed, 100 µL of isopropanol (containing 0.4 mM HCl, 0.1% NP-40) was added, and the plate was shaken at room temperature for 30 minutes; • D) The absorbance at 570 nm was measured using a TECAN microplate reader.

The next assay addresses CDK4/CycD1 (Homo sapiens, UniProt P11802). Nature of the assay: Kinase activity assay (MSA, EZ Reader) against CDK4.
The test system of assay [2] is Human breast cancer cells MCF-7. Nature of the assay: Cell anti-proliferation assay (MTT), MCF-7. It counts as cell-based. The conditions noted are these: Homo sapiens, MCF7, 120 h, MCF-7 cells, incubated for 5 days. On the procedure: as §1, §2, §3, §4
Assay [3] has as its system human ovarian cancer cells A2780. The assay can be described thus: Cell anti-proliferation assay (MTT), A2780. It counts as cell-based. The conditions noted are these: Homo sapiens, 120 h, incubated for 5 days. The protocol: as §1, §2, §3, §4

CDK4/CycD1, sequence (P11802 whole entry): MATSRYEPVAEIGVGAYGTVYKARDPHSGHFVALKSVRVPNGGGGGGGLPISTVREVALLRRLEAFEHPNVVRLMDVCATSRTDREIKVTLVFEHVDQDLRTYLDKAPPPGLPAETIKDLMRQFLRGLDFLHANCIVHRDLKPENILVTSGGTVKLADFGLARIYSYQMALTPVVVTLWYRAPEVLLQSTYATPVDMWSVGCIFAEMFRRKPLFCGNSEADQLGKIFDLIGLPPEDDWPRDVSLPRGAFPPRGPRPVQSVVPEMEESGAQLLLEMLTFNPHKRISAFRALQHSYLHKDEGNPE
T1 sequence (Q00534 whole entry): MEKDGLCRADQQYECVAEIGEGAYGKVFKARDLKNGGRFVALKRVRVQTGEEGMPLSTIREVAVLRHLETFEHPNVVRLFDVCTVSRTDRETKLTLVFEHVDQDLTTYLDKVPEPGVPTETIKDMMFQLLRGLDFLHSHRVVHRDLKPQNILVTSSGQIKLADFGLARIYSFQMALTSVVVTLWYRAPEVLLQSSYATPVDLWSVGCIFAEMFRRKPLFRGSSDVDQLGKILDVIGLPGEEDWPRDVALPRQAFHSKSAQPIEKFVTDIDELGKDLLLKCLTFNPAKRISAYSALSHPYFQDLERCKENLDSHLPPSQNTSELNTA
T1 sequence (P30281 whole entry partner): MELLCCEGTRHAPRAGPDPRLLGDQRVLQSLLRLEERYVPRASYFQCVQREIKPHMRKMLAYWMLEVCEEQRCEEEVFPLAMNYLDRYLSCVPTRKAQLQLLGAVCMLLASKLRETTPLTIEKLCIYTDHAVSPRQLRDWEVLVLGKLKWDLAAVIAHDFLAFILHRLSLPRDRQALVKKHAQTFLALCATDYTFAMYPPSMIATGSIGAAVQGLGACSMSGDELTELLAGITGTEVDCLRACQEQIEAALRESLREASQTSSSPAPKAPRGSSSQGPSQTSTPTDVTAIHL

For `C[C@H]1CCN(c2ccc(F)cc2F)c2nc3c(F)cc(-c4nc(N[C@@H]5CCOC[C@H]5O)ncc4Cl)cc3n21` [TC-13], the half-maximal inhibitory concentration (IC50) against CDK6/CyclinD3 is 74.4 nM; in assay [1], no more than 500 nM; against CDK4/CycD1 it was 3.3 nM; in assay [2] it was no more than 500 nM; in assay [3], no more than 500 nM.
Turning to `CNS(=O)(=O)c1ccc(Nc2ncc(Cl)c(-c3cc(F)c4nc5n(c4c3)C(C)CCN5C)n2)cc1` (stereo not drawn) [TB-53, 4-((5-chloro-4-(9-fluoro-1,4-dimethyl-1,2,3,4-tetrahydrobenzo[4,5]imidazo[1,2-a]pyrimidin-7-yl)pyrimidin-2-yl)amino)-N-methylbenzenesulfonamide], the IC50 on CDK6/CyclinD3 is 56.9 nM; in assay [1] it was no more than 500 nM; against CDK4/CycD1, 10.6 nM; in assay [2], no more than 500 nM; in assay [3], no more than 500 nM.
Regarding `C[C@H]1CCN(CC(C)(C)O)c2nc3c(F)cc(-c4nc(N[C@@H]5CCOC[C@H]5O)ncc4Cl)cc3n21` [TC-7], the IC50 at CDK6/CyclinD3 is 154 nM; in assay [1] it was no more than 500 nM; on CDK4/CycD1, 3.7 nM; in assay [2], no more than 500 nM; in assay [3], no more than 500 nM.
In the case of `CC(C)n1c(N2CCOC2=O)nc2c(F)cc(-c3nc(NC4CCN(S(C)(=O)=O)CC4)ncc3F)cc21` [TB-28], the concentration for half-maximal inhibition (IC50) was 154 nM on CDK6/CyclinD3; no more than 500 nM in assay [1]; 8.57 nM at CDK4/CycD1; no more than 500 nM in assay [2]; no more than 500 nM in assay [3].
As for `CC(C)n1c(N2CCOC2=O)nc2c(F)cc(-c3nc(NC4CCN(S(=O)(=O)C5CC5)CC4)ncc3Cl)cc21` [TB-33], the IC50 against CDK6/CyclinD3 was 61.7 nM; in assay [1], no more than 500 nM; against CDK4/CycD1, 8.37 nM; in assay [2], no more than 500 nM; in assay [3] it was no more than 500 nM.
As for `C[C@H]1CCN(c2ccc(C#N)cc2)c2nc3c(F)cc(-c4nc(N[C@@H]5CCOC[C@H]5O)ncc4Cl)cc3n21` [TC-17], the IC50 on CDK6/CyclinD3 was greater than 500 nM; in assay [1], no more than 500 nM; at CDK4/CycD1, 4.5 nM; in assay [2], no more than 500 nM; in assay [3], no more than 500 nM.
In the case of `CC1(C)Cn2c(nc3c(F)cc(-c4nc(N[C@@H]5CCOC[C@H]5O)ncc4Cl)cc32)S(=O)(=O)C1` [TB-148], the IC50 against CDK6/CyclinD3 was found to be 222 nM; at CDK4/CycD1, 71.4 nM.
In the case of `COC(=O)N(C)c1nc2c(F)cc(-c3nc(N[C@@H]4CCOC[C@H]4O)ncc3Cl)cc2n1C(C)C` [TB-8, methyl (6-(5-chloro-2-(((3S,4R)-3-hydroxytetrahydro-2H-pyran-4-yl)amino)pyrimidin-4-yl)-4-fluoro-1-isopropyl-1H-benzo[d]imidazol-2-yl)(methyl)carbamate], the IC50 against CDK6/CyclinD3 is 334 nM; in assay [1], no more than 500 nM; against CDK4/CycD1 it was 18.8 nM; in assay [2], 500 to 2000 nM; in assay [3] it was no more than 500 nM.
For `CC(C)n1c(N(C)C)nc2c(F)cc(-c3nc(N[C@H]4CC[C@H](NS(C)(=O)=O)CC4)ncc3Cl)cc21` [TB-5], the half-maximal inhibitory concentration (IC50) on CDK6/CyclinD3 is 71.6 nM; in assay [1], no more than 500 nM; against CDK4/CycD1, 4.24 nM; in assay [2], no more than 500 nM; in assay [3] it was no more than 500 nM.
Turning to `CNS(=O)(=O)c1ccc(Nc2ncc(Cl)c(-c3cc(F)c4nc(N(C)C)n(C(C)C)c4c3)n2)cc1` [TB-20, 4-((5-chloro-4-(2-(dimethylamino)-4-fluoro-1-isopropyl-1H-benzo[d]imidazol-6-yl)pyrimidin-2-yl)amino)-N-methylbenzenesulfonamide], the IC50 at CDK6/CyclinD3 was 141 nM; at CDK4/CycD1, 44.6 nM.
For the compound `CC(C)n1c(N2CCOC2=O)nc2c(F)cc(-c3nc(Nc4ccc(S(C)(=O)=O)cc4)ncc3Cl)cc21` [TB-54, 3-(6-(5-chloro-2-((4-(methylsulfonyl)phenyl)amino)pyrimidin-4-yl)-4-fluoro-1-isopropyl-1H-benzo[d]imidazol-2-yl)oxazolidin-2-one], the IC50 at CDK6/CyclinD3 amounted to 411 nM; on CDK4/CycD1, 101 nM.
The matching figures for `CC(C)n1c(N2CCOC2=O)nc2c(F)cc(-c3ccnc(NC4CCN(S(C)(=O)=O)CC4)n3)cc21` [TB-94]: 458 nM and 44.4 nM.

(Values after EP4775575A1, “COMPOUND USED AS CDK4 KINASE INHIBITOR AND USE THEREOF” (TYK Medicines, Inc., priority 2023, dated 2025).)
